Columns and labels:
[1] = Cytotoxicity against PMA-differentiated human U937 macrophages assessed as reduction in cell viability after 24 hrs by MTT assay; format: cell-based; details: u-937, 24 h
[2] = Antiinflammatory activity in PMA-differentiated human U937 cells assessed as inhibition of LPS-stimulated IL-6 secretion at 500 uM preincubated for 2 hrs followed by LPS-stimulation measured after 24 hrs by ELISA relative to control; format: functional; details: U-937
[3] = Antiinflammatory activity in PMA-differentiated human U937 cells assessed as inhibition of LPS-stimulated IL-6 secretion at 250 uM preincubated for 2 hrs followed by LPS-stimulation measured after 24 hrs by ELISA relative to control; format: functional; details: U-937
[4] = Antiinflammatory activity in PMA-differentiated human U937 cells assessed as inhibition of LPS-stimulated IL-6 secretion at 125 uM preincubated for 2 hrs followed by LPS-stimulation measured after 24 hrs by ELISA relative to control; format: functional; details: U-937
[5] = Antiinflammatory activity in PMA-differentiated human U937 cells assessed as inhibition of LPS-stimulated IL-8 secretion at 500 uM preincubated for 2 hrs followed by LPS-stimulation measured after 24 hrs by ELISA relative to control; format: functional; details: U-937
[6] = Antiinflammatory activity in PMA-differentiated human U937 cells assessed as inhibition of LPS-stimulated IL-8 secretion at 250 uM preincubated for 2 hrs followed by LPS-stimulation measured after 24 hrs by ELISA relative to control; format: functional; details: U-937
[7] = Antiinflammatory activity in PMA-differentiated human U937 cells assessed as inhibition of LPS-stimulated IL-8 secretion at 125 uM preincubated for 2 hrs followed by LPS-stimulation measured after 24 hrs by ELISA relative to control; format: functional; details: U-937
[8] = Antiinflammatory activity in PMA-differentiated human U937 cells assessed as inhibition of LPS-stimulated IL-1beta secretion at 500 uM preincubated for 2 hrs followed by LPS-stimulation measured after 24 hrs by ELISA relative to control; format: functional; details: U-937
[9] = Antiinflammatory activity in PMA-differentiated human U937 cells assessed as inhibition of LPS-stimulated IL-1beta secretion at 250 uM preincubated for 2 hrs followed by LPS-stimulation measured after 24 hrs by ELISA relative to control; format: functional; details: U-937
[10] = Antiinflammatory activity in PMA-differentiated human U937 cells assessed as inhibition of LPS-stimulated IL-1beta secretion at 125 uM preincubated for 2 hrs followed by LPS-stimulation measured after 24 hrs by ELISA relative to control; format: functional; details: U-937
[11] = Antiinflammatory activity in PMA-differentiated human U937 cells assessed as inhibition of LPS-stimulated TNF-alpha secretion at 500 uM preincubated for 2 hrs followed by LPS-stimulation measured after 24 hrs by ELISA relative to control; format: functional; details: U-937
[12] = Antiinflammatory activity in PMA-differentiated human U937 cells assessed as inhibition of LPS-stimulated TNF-alpha secretion at 250 uM preincubated for 2 hrs followed by LPS-stimulation measured after 24 hrs by ELISA relative to control; format: functional; details: U-937
[13] = Antiinflammatory activity in PMA-differentiated human U937 cells assessed as inhibition of LPS-stimulated TNF-alpha secretion at 125 uM preincubated for 2 hrs followed by LPS-stimulation measured after 24 hrs by ELISA relative to control; format: functional; details: U-937
[14] = Antiinflammatory activity in human U937-3xkB-luc cells assessed as inhibition of LPS-induced NFkappaB activation at 100 uM preincubated for 30 mins followed by LPS-stimulation measured after 6 hrs by luciferase assay relative to control; format: functional; details: U-937
[15] = Antiinflammatory activity in human U937-3xkB-luc cells assessed as inhibition of LPS-induced NFkappaB activation at 20 uM preincubated for 30 mins followed by LPS-stimulation measured after 6 hrs by luciferase assay relative to control; format: functional; details: U-937
[16] = Antiinflammatory activity in human U937-3xkB-luc cells assessed as inhibition of LPS-induced NFkappaB activation at 5 uM preincubated for 30 mins followed by LPS-stimulation measured after 6 hrs by luciferase assay relative to control; format: functional; details: U-937
[17] = Antiinflammatory activity in human U937-3xkB-luc cells assessed as inhibition of LPS-induced NFkappaB activation preincubated for 30 mins followed by LPS-stimulation measured after 6 hrs by luciferase assay relative to control; format: functional, U-937
[18] = Antiinflammatory activity in PMA-differentiated human U937 cells assessed as inhibition of LPS-stimulated IL-1beta secretion preincubated for 2 hrs followed by LPS-stimulation measured after 24 hrs by ELISA relative to control; format: functional, U-937
[19] = (§1) Antiinflammatory activity in PMA-differentiated human U937 cells assessed as inhibition of LPS-stimulated IL-6 secretion preincubated for 2 hrs followed by LPS-stimulation measured after 24 hrs by ELISA relative to control; format: functional, U-937
[20] = Antiinflammatory activity in PMA-differentiated human U937 cells assessed as inhibition of LPS-stimulated IL-8 secretion preincubated for 2 hrs followed by LPS-stimulation measured after 24 hrs by ELISA relative to control; format: functional, U-937
[21] = (§2) Antiinflammatory activity in PMA-differentiated human U937 cells assessed as inhibition of LPS-stimulated TNF-alpha secretion preincubated for 2 hrs followed by LPS-stimulation measured after 24 hrs by ELISA relative to control; format: functional, U-937
[22] = Antiinflammatory activity in PMA-differentiated human U937 cells assessed as inhibition of LPS-stimulated IL-6 secretion at 62.5 uM preincubated for 2 hrs followed by LPS-stimulation measured after 24 hrs by ELISA relative to control; format: functional; details: U-937
[23] = Antiinflammatory activity in PMA-differentiated human U937 cells assessed as inhibition of LPS-stimulated IL-8 secretion at 62.5 uM preincubated for 2 hrs followed by LPS-stimulation measured after 24 hrs by ELISA relative to control; format: functional; details: U-937
[24] = Antiinflammatory activity in PMA-differentiated human U937 cells assessed as inhibition of LPS-stimulated IL-1beta secretion at 62.5 uM preincubated for 2 hrs followed by LPS-stimulation measured after 24 hrs by ELISA relative to control; format: functional; details: U-937
[25] = Antiinflammatory activity in PMA-differentiated human U937 cells assessed as inhibition of LPS-stimulated TNF-alpha secretion at 62.5 uM preincubated for 2 hrs followed by LPS-stimulation measured after 24 hrs by ELISA relative to control; format: functional; details: U-937
U-937 [26] = assay: as §1; format: functional
U-937 [27] = assay: as §2; format: functional

CCOC(=O)C(O)c1ccc(O)c(OC)c1 (centres undefined)
Activity [1]: > 1000 µM | inhibition at 500 µM [2]: 0% | inhibition at 250 µM [3]: 0% | inhibition at 125 µM [4]: 0% | inhibition at 500 µM [5]: 0% | inhibition at 250 µM [6]: 0% | inhibition at 125 µM [7]: 0% | inhibition at 500 µM [8]: 0% | inhibition at 250 µM [9]: 0% | inhibition at 125 µM [10]: 4% | inhibition at 500 µM [11]: 0% | inhibition at 250 µM [12]: 0% | inhibition at 125 µM [13]: 0% | inhibition at 100 µM [14]: 0% | inhibition at 20 µM [15]: 6.5% | inhibition at 5 µM [16]: 16.4%

COc1cc(Cc2ccc(O)c(OC)c2)ccc1O
Activity [1]: 500 µM | inhibition at 500 µM [2]: 95.3% | inhibition at 250 µM [3]: 62.3% | inhibition at 125 µM [4]: 4.3% | inhibition at 500 µM [5]: 26.9% | inhibition at 250 µM [6]: 15% | inhibition at 125 µM [7]: 7.1% | inhibition at 500 µM [8]: 49.2% | inhibition at 250 µM [9]: 33.4% | inhibition at 125 µM [10]: 3% | inhibition at 500 µM [11]: 72.2% | inhibition at 250 µM [12]: 15% | inhibition at 125 µM [13]: 7.6% | inhibition at 100 µM [14]: 43.1% | inhibition at 20 µM [15]: 28.9% | inhibition at 5 µM [16]: 11%

Cc1ccc(S(=O)(=O)/C=C/C#N)cc1
inhibition (INH) [17]: 99.3% | inhibition (INH) [18]: 95.9% | inhibition (INH) [19]: 99.2% | inhibition (INH) [20]: 99.1% | inhibition (INH) [21]: 99.5%

CCOC(=O)C(=C(c1ccc(O)c(OC)c1)c1ccc(O)c(OC)c1)c1ccc(O)c(OC)c1
Activity [1]: 62.5 µM | inhibition at 500 µM [2]: 99.9% | inhibition at 250 µM [3]: 99.9% | inhibition at 125 µM [4]: 97.2% | inhibition at 62.5 µM [22]: 27.3% | inhibition at 500 µM [5]: 99.9% | inhibition at 250 µM [6]: 99.7% | inhibition at 125 µM [7]: 99.5% | inhibition at 62.5 µM [23]: 22.7% | inhibition at 500 µM [8]: 83.9% | inhibition at 250 µM [9]: 85.2% | inhibition at 125 µM [10]: 26.2% | inhibition at 62.5 µM [24]: 0% | inhibition at 500 µM [11]: 100% | inhibition at 250 µM [12]: 100% | inhibition at 125 µM [13]: 92.3% | inhibition at 62.5 µM [25]: 15.9% | inhibition at 100 µM [14]: 79.9% | inhibition at 20 µM [15]: 15.9% | inhibition at 5 µM [16]: 12.8%

COc1cc(C(CO)C(c2ccc(O)c(OC)c2)c2ccc(O)c(OC)c2)ccc1O (centres undefined)
Activity [1]: 500 µM | inhibition at 500 µM [2]: 84.3% | inhibition at 250 µM [3]: 62.6% | inhibition at 125 µM [4]: 45.5% | inhibition at 62.5 µM [22]: 1.1% | inhibition at 500 µM [5]: 0.3% | inhibition at 250 µM [6]: 0% | inhibition at 125 µM [7]: 0.2% | inhibition at 62.5 µM [23]: 0% | inhibition at 500 µM [8]: 0.9% | inhibition at 250 µM [9]: 9.4% | inhibition at 125 µM [10]: 25.1% | inhibition at 62.5 µM [24]: 1.1% | inhibition at 500 µM [11]: 60% | inhibition at 250 µM [12]: 17.5% | inhibition at 125 µM [13]: 19.8% | inhibition at 62.5 µM [25]: 0% | inhibition at 100 µM [14]: 43.4% | inhibition at 20 µM [15]: 13.5% | inhibition at 5 µM [16]: 11.2% | inhibition (U-937 [26]): Dose-dependent effect | inhibition (U-937 [27]): Dose-dependent effect

Reference: ChEMBL document CHEMBL3745650, “Anti-inflammatory properties of quebecol and its derivatives” (Bioorg Med Chem Lett, 2016)
